Data published in PubChem BioAssay (NCI).
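Each compound was tested at five concentrations against cells in 96-well plates for 48 hours. TGI: concentration producing complete growth inhibition.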 Where a SMILES comes first, the peptide text is derived from it. [ ]: non-standard residue; d: D form. The star is where a group is joined. ξ: configuration not given here. NMeF = CN[C@@H](Cc1ccccc1)C(=O)O; ξNMeV = CNC(C(=O)O)C(C)C; Boc = CC(C)(C)OC(=O)*; OBn = c1ccc(CO*)cc1

Tests used:
Assay in all cases: DTP human tumour cell line panel, 48 h
RPMI-8226 leukemia = system: RPMI-8226 leukemia
M14 melanoma = system: M14 melanoma
HOP-92 NSCLC = system: HOP-92 NSCLC
K-562 leukemia = system: K-562 leukemia
HCT-116 colon = system: HCT-116 colon
NCI-H23 lung = system: NCI-H23 lung
HS 578T breast = system: HS 578T breast
M19-MEL melanoma = system: M19-MEL melanoma
CAKI-1 renal = system: CAKI-1 renal
PC-3 prostate = system: PC-3 prostate
RXF 393 renal = system: RXF 393 renal
IGROV1 ovarian = system: IGROV1 ovarian
SNB-19 CNS = system: SNB-19 CNS
U251 CNS = system: U251 CNS
SR leukemia = system: SR leukemia
SK-MEL-28 melanoma = system: SK-MEL-28 melanoma
OVCAR-4 ovarian = system: OVCAR-4 ovarian
OVCAR-3 ovarian = system: OVCAR-3 ovarian
SN12C renal = system: SN12C renal
MCF7 breast = system: MCF7 breast

Row | SMILES | TGI (RPMI-8226 leukemia) [µM] | TGI (M14 melanoma) [µM] | TGI (HOP-92 NSCLC) [µM] | TGI (K-562 leukemia) [µM] | TGI (HCT-116 colon) [µM] | TGI (NCI-H23 lung) [µM] | TGI (HS 578T breast) [µM] | TGI (M19-MEL melanoma) [µM] | TGI (CAKI-1 renal) [µM] | TGI (PC-3 prostate) [µM] | TGI (RXF 393 renal) [µM] | TGI (IGROV1 ovarian) [µM] | TGI (SNB-19 CNS) [µM] | TGI (U251 CNS) [µM] | TGI (SR leukemia) [µM] | TGI (SK-MEL-28 melanoma) [µM] | TGI (OVCAR-4 ovarian) [µM] | TGI (OVCAR-3 ovarian) [µM] | TGI (SN12C renal) [µM] | TGI (MCF7 breast) [µM]
1 | CCOc1ccc2c(ccc(/C=C\c3cc(C)c4cccnc4c3O)[n+]2C)c1 | 13.2 | 18.7 | 3.36 | 26.8 | 25 | 43.5 | > 100 | > 100 | 29.3 | 6.14 | 18.9 | 21.1 | 30.7 | 4.53 | 5.73 | 14.6 | 18.6 | 2 | 15.5 | 
2 | CC(C)C(C(=O)N1CCC[C@@H]1C(=O)OCc1ccccc1)N(C)C(=O)C(C(C)C)N(C)C(=O)[C@H](Cc1ccccc1)N(C)C(=O)[C@H](NC(=O)OC(C)(C)C)C(C)C (stereo partly specified) (Boc-[dV][NMeF][ξNMeV][ξNMeV][dP]-OBn) | > 100 | > 100 | > 100 | > 100 | > 100 | > 100 |  | > 100 |  |  | > 100 | > 100 | > 100 | > 100 | > 100 | > 100 | > 100 | > 100 | > 100 | 
3 | CC(C)C(=O)/C=C/c1ccc(Cl)cc1 | 67.2 | 33 | 31.6 | 15.6 | 11.5 | 44.7 |  | 29.6 |  |  | 35.5 | 46.3 | 28.1 | 25.5 | 26.2 |  | 52.3 | 28 | 21.7 | 
4 | COc1cc(C(C)c2cc3c(cc2OCCCCOc2cc4c(cc2C(C)c2cc(OC)c(OC)c(OC)c2)OCO4)OCO3)cc(OC)c1OC (stereo unspecified) | > 100 | 99.4 |  | > 100 | > 100 | > 100 |  | > 100 | > 100 |  | 73.3 | > 100 | > 100 | > 100 | > 100 | > 100 | > 100 | 58.2 | > 100 | 
5 | NCC(NC(=O)OCc1ccccc1)C(=O)O (stereo unspecified) | > 50 | > 50 | > 50 | > 50 | > 50 | > 50 |  | > 50 | > 50 |  |  | > 50 | > 50 | > 50 |  | > 50 | > 50 | > 50 | > 50 | 
6 | O=C1C2CCC(C2)C12CC1(c3ccccc3)C(=O)c3ccccc3N1O2 (stereo unspecified) | > 100 | > 100 | > 100 | > 100 | > 100 | > 100 |  | > 100 |  |  | > 100 | > 100 | > 100 | > 100 | > 100 | > 100 | > 100 |  | > 100 | 
7 | N#CC(C#N)=C(N)/C(C#N)=C/c1cc(O)c(O)c(Br)c1 | > 100 | > 100 | > 100 | > 100 | > 100 | > 100 | > 100 | > 100 | > 100 | > 100 | > 100 | > 100 | > 100 | > 100 | > 100 | > 100 | > 100 | 93.6 | > 100 | > 100
8 | COc1ccc([N-]/C(=N\n2c(=O)c(C)nn(C)c2=S)N(c2ccc(OC)cc2)c2nn3c(=O)c(C)n[n+](C)c3s2)cc1 | > 100 | > 100 | > 100 | > 100 | > 100 | > 100 |  | > 100 |  |  | > 100 | > 100 | > 100 | > 100 | > 100 | > 100 | > 100 |  | > 100 | 
9 | COc1ccc(C2ON(c3ccccn3)CC=C2C)cc1 (stereo unspecified) | > 100 | > 100 |  | > 100 |  | > 100 |  | > 100 | > 100 |  | > 100 | > 100 | > 100 | > 100 | > 100 | > 100 | > 100 | > 100 | > 100 | 
10 | CC(C)OP(=O)(OC(C)C)/C(=N/N)NNc1ccc([N+](=O)[O-])cc1 | > 100 | > 100 | > 100 | > 100 | > 100 | > 100 |  | > 100 | > 100 |  |  |  | > 100 | > 100 | > 100 | > 100 | > 100 | > 100 | > 100 | 
